For one test, the target named is T1, human CaSR (Homo sapiens, UniProt P41180).
T1 construct: the full length cDNA encoding CaSR was obtained first as three divisional parts; expressed in transfected cells
T1 sequence (P41180 20-1078): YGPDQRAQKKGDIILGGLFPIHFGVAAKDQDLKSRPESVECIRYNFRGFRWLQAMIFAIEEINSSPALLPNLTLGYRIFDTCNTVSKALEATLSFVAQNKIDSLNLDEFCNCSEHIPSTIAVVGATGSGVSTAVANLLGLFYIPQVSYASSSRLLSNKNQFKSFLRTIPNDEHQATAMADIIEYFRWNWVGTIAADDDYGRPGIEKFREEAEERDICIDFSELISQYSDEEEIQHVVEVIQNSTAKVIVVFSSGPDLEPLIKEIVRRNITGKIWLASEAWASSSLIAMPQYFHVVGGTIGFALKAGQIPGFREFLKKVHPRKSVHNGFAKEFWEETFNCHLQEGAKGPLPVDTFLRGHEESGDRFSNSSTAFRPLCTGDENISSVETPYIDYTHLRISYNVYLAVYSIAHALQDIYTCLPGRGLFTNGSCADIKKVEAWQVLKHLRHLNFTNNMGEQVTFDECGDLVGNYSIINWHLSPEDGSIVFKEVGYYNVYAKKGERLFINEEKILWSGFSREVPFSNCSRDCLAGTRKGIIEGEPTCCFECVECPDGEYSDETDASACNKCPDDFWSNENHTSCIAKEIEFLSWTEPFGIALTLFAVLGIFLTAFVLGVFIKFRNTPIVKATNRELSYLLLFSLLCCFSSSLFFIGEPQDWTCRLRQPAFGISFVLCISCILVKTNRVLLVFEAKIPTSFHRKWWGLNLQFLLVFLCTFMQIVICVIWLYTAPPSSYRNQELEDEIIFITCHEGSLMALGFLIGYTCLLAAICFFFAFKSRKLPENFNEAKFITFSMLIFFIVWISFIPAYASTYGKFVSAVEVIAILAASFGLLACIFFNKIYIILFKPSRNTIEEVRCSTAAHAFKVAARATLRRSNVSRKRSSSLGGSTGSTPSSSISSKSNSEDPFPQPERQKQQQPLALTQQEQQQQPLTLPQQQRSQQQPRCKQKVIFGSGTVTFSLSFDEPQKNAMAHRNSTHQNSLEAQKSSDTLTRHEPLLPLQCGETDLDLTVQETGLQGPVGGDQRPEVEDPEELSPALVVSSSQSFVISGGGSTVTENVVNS
Nature of the test: CaSR activating effect, in vitro test using CaSR expressing cells (intracellular calcium, Fura-2/FDSS). Type of test: cell-based. The following applies: CHO cells stably expressing human CaSR and Gα16; change in intracellular calcium concentration. From the text:
In vitro test using CaSR expressing cells
CaSR is a member of G protein-coupled receptor (GPCR). When CaSR of cells are activated by stimulating with extracellular Ca^2+ ion or an agonist (a compound having CaSR activating effect), etc., phospholipase C(PLC) is activated through G protein (Gq), and an intracellular calcium concentration is increased.
Thus, an activating effect on CaSR was examined by using CaSR expressing cell line and referring to change in an intracellular calcium concentration as an index. Preparation of cell strains and a test using the same are, more specifically, carried out as mentioned in the following (1) and (2).
(1) Acquisition of Human CaSR Expressing Cell Line
cDNA fragment encoding human CaSR was obtained from human kidney derived cDNA library by PCR.
[Primer to be Used for PCR was Designed Based on Known Nucleic Acid Sequence Information on Human CaSR (GenBank/EMBL Accession No. D50855; GenBank/EMBL Accession No. NM000388;
• Aida et al., Biochem. Biophys. Res. Commun., 214:524-529, 1995; • Garrett et al., J. Biol. Chem., 270: 12919-12925, 1995, etc.). Also, the full length cDNA encoding CaSR was obtained first as three divisional parts.]
These cDNA fragments were adequately connected to an expression vector to obtain a plasmid for expressing a functional human CaSR in animal cells.
Also, this human CaSR expression plasmid was transfected to CHO cells with a Qα16 expression plasmid α plasmid which is to express a subunit (α16) of G protein], and selected from a medium containing neomycin (G418) to obtain stable expressing cell line.
The obtained cell line stably expressed CaSR of human and α16 subunit of G protein.
(2) Measurement of Calcium Concentration in Cells
By using the CaSR expressing cell line obtained in the above-mentioned (1), change in an intracellular calcium concentration was measured at the time when the cells were stimulated in the presence or in the absence of a test compound as follows.
First, cells were collected using a cell scraper, suspended in a solution comprising Hepes buffer [10 mM Hepes (7.3), 10 mM glucose, 140 mM NaCl, 5 mM KCl, 2 mM CaCl2, 1 mM MgCl2] to which 0.1% cremophor and 3 μM Fura-2 had been added, and reacted at 37° C. for 1 hour under the conditions wherein a test compound of various concentrations (or conditions not added).
After being washed, the cells suspended in Hepes buffer were seeded to a plate (about 2×10^5 cells per 1 well of 96-well plate), and fluorescent intensity (Ratio of 340/380 nm) was measured using FDSS (Functional Drug Screening Sysytem; Hamamatsu Photonics K. K.) to examine change in intracellular calcium concentrations.
CaSR activating effect was confirmed basing on the value (change in an intracellular calcium concentration) measured in the reaction carried out in the presence of the test compound, a CaSR activating ability was confirmed.
Also, from the measured values (change in an intracellular calcium concentration) of the test compound with various concentrations, a concentration/response curve was drawn to obtain an EC50 value (concentration of agonist giving a half maximal response).

A further test relates to rat parathyroid cells. In words: Suppressing effect on PTH production, in vitro test using rat parathyroid cells (PTH (1-84) ELISA). The following applies: primary cultured rat parathyroid cells, 1.15 mM Ca, 22 to 24 hours culture. Format: cell-based. An excerpt:
In Vitro Test Using Rat Parathyroid Cells
By using primary cultured cells prepared from the parathyroid in rats, suppressing effect on PTH production was examined according to the following in vitro test.
(1) Preparation and Culture of Rat Parathyroid Cells:
Thirty-six 10-weeks old male CD (SD) IGS rats (Crj series, grade: SPF, CHARLES RIVER LABORATORIES JAPAN, INC.) were euthanasically sacrificed under ether anesthesia, the thyroid gland together with the parathyroid glands were cut out under sterilized conditions, and preserved in ITS-containing DMEM/F-12 medium (low Ca). The parathyroid glands were separated from the obtained material under observation by stereoscopic microscope, and collected in the same medium. Next, the medium was discarded, the parathyroid glands were washed with a phosphate buffer solution (PBS(−)) containing no calcium and magnesium ions, 5 ml of a collagenase solution [PBS(−) containing 1.5 mg/ml of collagenase type IV (Gibco Co., catalogue No. 17104-019)] was added, and digested at 37° C. for 1 hour with shaking. After digestion, the enzyme solution was discarded, the parathyroid glands were quickly minced with a scalpel in a laboratory dish, and were collected in 7 ml of a collagenase solution, and digested again at 37° C. for 90 minutes with shaking.
Cell debris was removed using cell strainer, the residue was removed, and then, the cells were collected. They were washed twice with an ITS-containing DMEM/F-12 medium (low Ca) containing 5% FCS, and suspended in the same medium. The parathyroid cells were suspended at the concentration of about 5×10^4 cells/ml, and were seeded to 96-well plate (200 μl/well), and cultured (pre-culture) at 37° C. for about 24 hours in a CO2 incubator.
The ITS-containing DMEM/F-12 medium (low Ca) to be used mentioned above was prepared as follows. Ca-free DMEM (Dulbecco's modified Eagle's medium) (Gibco Co., catalogue No. 21068-028)(500 ml), F-12 (F-12 nutrient mixture; Gibco Co., catalogue No. 11765-054)(500 ml) and 10 ml of ITS (a mixture containing 5 μg/ml of insulin, 5 μg/ml of transferrin and 5 ng/ml of selenium) (ITS+Premix; BD Biosciences Co., catalogue No. 35435) were mixed. To the mixture was dissolved 3.5745 g of HEPES (NACALAI TESQUE Co., catalogue No. 17547-95), and 10 ml of 200 mM L-glutamine (Gibco Co., catalogue No. 25030-081) and 1 ml of Penicillin-Streptomycin solution (100×Penicillin-Streptomycin, liquid; Gibco Co., catalogue No. 15140-122) were added, and the resulting mixture was sterilized by filtration, and then, used. Ca concentration in the medium is about 0.15 mM.
(2) Test of Suppressing Effect on PTH Production
Rat parathyroid cells were pre-cultured as mentioned in the above (1), then, the medium was changed, and the cells were cultured for 22 to 24 hours in a medium to which a test compound and CaCl2 had been added (96-well plate, 200 μl/well). Various concentrations of the test compound and CaCl2 were added to a serum-free ITS-containing DMEM/F-12 medium (low Ca), and the resulting medium was used. When the test compound is to be added, CaCl2 was added so that the Ca concentration became 1.15 mM. […]
PTH (1-84) in the above-mentioned culture supernatant was measured by the ELISA Method, and determined as a PTH production value. […]
Based on the measured value (PTH production value), of the test compounds, the inhibition rate in PTH production was calculated. […]
(In general: ELISA stands for enzyme-linked immunosorbent assay.)

Structures can show the parent of a compound that is named as a salt.

By EC50 is commonly meant the concentration giving half of the maximal effect. The IC50 is the concentration needed to halve the response being measured. A low value points to greater potency in that assay.

`C[C@@H](N[C@@H]1CCCN(c2ccccn2)C1)c1cccc2ccccc12` [Example 1.077]: the EC50 on human CaSR was found to be 0.42 µM. For the same molecule, the IC50 in the test with rat parathyroid cells is 5.3 nM.

For the molecule `C[C@@H](N[C@H]1CCN(c2ccc(C(=O)O)cc2)C1)c1cccc2ccccc12` [Example 3.001, 4-[(S)-3-[(R)-1-(naphthalen-1-yl)ethylamino]pyrrolidin-1-yl]benzoic acid hydrochloride], the EC50 on human CaSR amounted to 0.29 µM. The molecule further returned an IC50 in the test with rat parathyroid cells of 8 nM.

`C[C@@H](N[C@H]1CCN(C(=O)Cc2ccccc2C(F)(F)F)C1)c1cccc2ccccc12` [Example 5.023]: the EC50 at human CaSR came out at 0.42 µM. In the test with rat parathyroid cells, the IC50 is below 10 nM.

Take `C[C@@H](N[C@H]1CCN(c2ccc(S(=O)(=O)NCCN(C)C)cc2)C1)c1cccc2ccccc12` [Example 12.020]: the EC50 at human CaSR turned out to be 0.018 µM. This molecule also gave an IC50 in the test on rat parathyroid cells of 0.27 nM.

On to “(S)-1-(1H-tetrazol-5-yl)pyrrolidin-3-yl-[(R)-1-(naphthalen-1-yl)ethyl]amine hydrochloride [Example 12.028]”, for which the EC50 on human CaSR came to 0.017 µM. Also, in the test with rat parathyroid cells, the IC50 stood at 0.47 nM.

The values are drawn from US8759387B2, “Arylalkylamine compound and process for preparing the same” (Mitsubishi Tanabe Pharma Corporation, priority 2004, dated 2014).
